Several values for one entry are separate records, joined by “and”; a condition that tells them apart may be missing. Identical values can stand only once. Like-named read-outs stand apart in the source and are kept apart here.
Legend:
CYP3A4 = target: T1, CYP3A4 (Homo sapiens, UniProt P08684); test: Intrinsic clearance using recombinant CYPs: CYP3A4; type: in vitro ADME
T1 construct: purchased Corning Life Sciences (Woburn, MA, USA)
Protocol: (§1) The elimination profiles of tegoprazan and M1 were assessed using rCYPs. All the assay procedures were performed according to the manufacturer’s instructions. Master mix (1.399 mL), containing the NADPH-generating system, 3.3 mM of glucose 6-phosphate, PBS buffer, deionized water, and each rCYP (25 pmol/μL of CYP2C8, 2C19, and 2E1 and 50 pmol/μL of CYP3A4, 2C9, and 2D6), was added to a microtube and pre-incubated at 37 °C for 5 min. Next, 1 μM tegoprazan and M1 were added and incubated at 37 °C for 0, 5, 10, 20, 30, 45, and 60 min. A total of 100 μL of the sample, incubated for predefined duration, was transferred to a fresh e-tube. Next, 200 μL of acetonitrile containing tegoprazan-d6 (0.5 μM) was added, vortexed for 5 min, and centrifuged at 16,200× g and 4 °C for 10 min. The concentrations of the remaining tegoprazan and M1 were determined by LC–MS/MS. All experiments were performed in duplicate. CLint,rCYP levels were assessed using the results of the disappearance test. […] The CLint resulting from rCYPs was calculated using Equation (3):(3) CLint,rCYP(μL/min/pmol CYP)=0.693/t1/2×1400/concentration of CYP
(§2) Caco-2 and rCYP samples were quantified using LC-MS/MS (UPLC® I-class coupled with TQ-MS (Waters, Milford, MA, USA). The mobile phase comprised (a) 0.1% formic acid and (b) acetonitrile containing 0.1% formic acid. Gradient elution at a flow rate of 0.3 mL/min was applied. Tegoprazan, M1, and the internal standard (tegoprazan-d6) were optimized in electrospray ionization positive mode. Acetonitrile with 0.1 μM of tegoprazan-d6 was added to the collected Caco-2 or rCYP samples. Then, processed samples were centrifuged at 13,000× g for 20 min. After centrifugation, 100 μL of supernatant was transferred to an LC-MS vial and analyzed using LC-MS/MS. […] The stability of tegoprazan was evaluated, and it satisfied the acceptance criteria (coefficient of variances was within 15%) under variable conditions including reinjection, processed sample stability (PSS), and short-term stability for the stock and sample.

[1] = set-up: method as in PMID 31437865; details: cited from earlier work
[2] = Caco-2 permeability assay; type: in vitro ADME; details: human
Protocol: (§3) Caco-2 cells were cultured in DMEM supplemented with 20% FBS, 1% non-essential amino acids, and 1% penicillin-streptomycin. Caco-2 cells were seeded onto collagen-coated 12-Transwell membranes at a density of 5 × 10^5 cells/mL and incubated under optimal conditions (maintained at 37 °C in a humidified atmosphere with 5% CO2/95% air) for 21 days. The culture medium was replaced every second day. For the experiments, after the growth medium was removed, the attached cells were washed with pre-warmed HBSS (pH 7.4) and pre-incubated with HBSS for 20 min at 37 °C. The integrity of the cell monolayers was evaluated before and after the permeability experiments by measuring transepithelial electrical resistance (TEER) values using an epithelial volt/ohm meter (World Precision Instruments, Sarasota, FL, USA). Caco-2 cells with TEER values higher than 300 Ω∙cm^2 were used for permeability experiments, and alterations in TEER values were less than 10% in all cases (i.e., 417.3 ± 6.3 Ω∙cm^2 and 400.8 ± 3.5 Ω∙cm^2, before and after the permeability experiments, respectively).
(§4) To determine the apical to basal (A to B) permeability of tegoprazan, 0.5 mL of HBSS containing 10 µM tegoprazan and 1.5 mL of fresh HBSS were added to the apical and basal side of the insert, respectively. The insert was transferred to a new well that contained 1.5 mL of fresh HBSS every 15 min, for 1 h. Aliquots (0.3 mL) on the basal side were transferred to fresh tubes and stored at −80 °C until further analysis. To investigate B-to-A permeability, 1.5 mL of HBSS containing 10 µM tegoprazan and 0.5 mL of fresh HBSS were added to the basal and apical sides of the insert, respectively. Aliquots (0.3 mL) on the apical side were transferred to fresh tubes, and 0.3 mL of pre-warmed fresh HBSS was replaced every 15 min for 1 h. The transport study was performed for 1 h based on the linearity of the cumulative transported tegoprazan amount versus transport time. The cumulative transported amount was calculated as the sum of transported amounts for 0–15 min, 15–30 min, 30–45 min, and 45–60 min, and the transport rate of tegoprazan was the slope of the regression line derived from the cumulative transported amount versus time plot. The apparent permeability (Papp) was calculated from the following Equation (2):(2) Papp(10^−6cm/s)=transport rate (nmol/min)/concentration (μM)× area(cm^2)×60 s
(§5) Caco-2 and rCYP samples were quantified using LC-MS/MS (UPLC® I-class coupled with TQ-MS (Waters, Milford, MA, USA). The mobile phase comprised (a) 0.1% formic acid and (b) acetonitrile containing 0.1% formic acid. Gradient elution at a flow rate of 0.3 mL/min was applied. Tegoprazan, M1, and the internal standard (tegoprazan-d6) were optimized in electrospray ionization positive mode. Acetonitrile with 0.1 μM of tegoprazan-d6 was added to the collected Caco-2 or rCYP samples. Then, processed samples were centrifuged at 13,000× g for 20 min. After centrifugation, 100 μL of supernatant was transferred to an LC-MS vial and analyzed using LC-MS/MS. The analytical method was validated based on the Bioanalytical Method Validation Guidance for Industry published by the US Food and Drug Administration and the Guideline on Bioanalytical Method Validation published by the Korean Ministry of Food and Drug Safety (MFDS). Linearity was in the range of 0.1–20 µM, and the inter-batch accuracy and precision were in the ranges of 91.8–101.3% and 2.3–8.9%, respectively. The stability of tegoprazan was evaluated, and it satisfied the acceptance criteria (coefficient of variances was within 15%) under variable conditions including reinjection, processed sample stability (PSS), and short-term stability for the stock and sample.

Caco-2 cells = test: Caco-2 permeability assay; type: in vitro ADME; details: pH 7.4/7.4, 10 µM; for Papp / Transport Rate: single replicates; for Recovery: single replicates A-C
Protocol: as §3, §4, §5

[3] = cited from earlier work
CYP2E1 = target: T2, CYP2E1 (Homo sapiens, UniProt P05181); test: Intrinsic clearance using recombinant CYPs: CYP2E1; type: in vitro ADME
T2 construct: purchased Corning Life Sciences (Woburn, MA, USA)
T2 sequence (P05181 whole entry): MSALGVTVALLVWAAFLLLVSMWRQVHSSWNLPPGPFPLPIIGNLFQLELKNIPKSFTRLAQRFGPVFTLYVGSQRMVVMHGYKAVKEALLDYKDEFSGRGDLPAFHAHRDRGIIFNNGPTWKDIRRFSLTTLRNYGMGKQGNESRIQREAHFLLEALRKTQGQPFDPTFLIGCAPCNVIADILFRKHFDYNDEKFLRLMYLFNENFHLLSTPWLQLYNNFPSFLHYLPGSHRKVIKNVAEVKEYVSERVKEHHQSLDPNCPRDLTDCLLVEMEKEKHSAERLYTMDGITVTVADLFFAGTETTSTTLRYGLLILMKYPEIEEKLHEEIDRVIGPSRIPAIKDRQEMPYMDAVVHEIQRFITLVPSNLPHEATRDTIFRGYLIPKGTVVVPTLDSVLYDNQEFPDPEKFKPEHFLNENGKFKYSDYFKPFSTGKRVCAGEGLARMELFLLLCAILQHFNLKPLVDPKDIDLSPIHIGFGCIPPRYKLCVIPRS
Protocol: as §1, §2

[4] = At 30 min after a high-fat meal, Observed (n = 12), single 50 mg, ref 34 (footnote; text: ref 16)

T1 sequence (P08684 whole entry): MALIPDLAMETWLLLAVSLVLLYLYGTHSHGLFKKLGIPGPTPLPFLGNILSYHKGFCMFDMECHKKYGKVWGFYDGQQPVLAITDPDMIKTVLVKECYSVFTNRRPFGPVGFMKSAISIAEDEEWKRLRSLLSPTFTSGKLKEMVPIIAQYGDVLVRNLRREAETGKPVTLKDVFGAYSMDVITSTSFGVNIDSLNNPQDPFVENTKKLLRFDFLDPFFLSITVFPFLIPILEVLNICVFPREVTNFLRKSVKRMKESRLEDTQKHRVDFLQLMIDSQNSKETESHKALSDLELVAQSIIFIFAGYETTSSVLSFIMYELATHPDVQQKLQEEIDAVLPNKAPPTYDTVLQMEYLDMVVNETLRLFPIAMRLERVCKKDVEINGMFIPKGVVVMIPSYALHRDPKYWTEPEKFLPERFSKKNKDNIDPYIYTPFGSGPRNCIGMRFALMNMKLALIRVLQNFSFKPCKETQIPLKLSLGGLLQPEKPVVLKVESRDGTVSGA

CLint, CYP3A4 (CYP3A4; 1 μM, experimental (initial model value)): 0.86 µL/min/pmol and 0.855 µL/min/pmol
half-life at 1 μM (CYP3A4; human, recombinant CYP3A4, rCYP3A4): 22.7 min
Slope (disappearance) (CYP3A4; rCYP3A4, 1 μM): -0.031
Papp at 1 h, 10 µM ([2]; Caco-2, pH 7.4, A to B, pH 7.4/7.4, 10 µM, read-out: Papp, Mean): 12.5 ×10⁻⁶ cm/s
recovery at 1 h, 10 µM ([2]; Caco-2, pH 7.4, A to B, pH 7.4/7.4, 10 µM, read-out: Recovery, Mean): 84.5%
recovery at 1 h, 10 µM ([2]; Caco-2, pH 7.4, A to B, pH 7.4/7.4, 10 µM, single replicates A-C, read-out: Recovery): 82.7%
Papp at 1 h, 10 µM ([2]; Caco-2, pH 7.4, A to B, pH 7.4/7.4, 10 µM, single replicates, read-out: Papp): 13.4 ×10⁻⁶ cm/s
Papp at 1 h, 10 µM ([2]; Caco-2, pH 7.4, B to A, pH 7.4/7.4, 10 µM, read-out: Papp, Mean): 11.7 ×10⁻⁶ cm/s
recovery at 1 h, 10 µM ([2]; Caco-2, pH 7.4, B to A, pH 7.4/7.4, 10 µM, read-out: Recovery, Mean): 84.3%
recovery at 1 h, 10 µM ([2]; Caco-2, pH 7.4, B to A, pH 7.4/7.4, 10 µM, single replicates A-C, read-out: Recovery): 85.9%
Papp at 1 h, 10 µM ([2]; Caco-2, pH 7.4, B to A, pH 7.4/7.4, 10 µM, single replicates, read-out: Papp): 11.4 ×10⁻⁶ cm/s
Papp at 1 h, 10 µM ([2]; Caco-2, pH 7.4, initial model value (experimental), read-out: Papp,caco-2): 12.5 ×10⁻⁶ cm/s
Papp (Caco-2 cells; A to B): 11.01 ×10⁻⁶ cm/s and 13.23 ×10⁻⁶ cm/s
Transport Rate (Caco-2 cells; A to B): 0.56 nmol/h and 0.48 nmol/h
Recovery (Caco-2 cells; A to B): 86.4%
Papp (Caco-2 cells; B to A): 10.36 ×10⁻⁶ cm/s and 13.36 ×10⁻⁶ cm/s
Recovery (Caco-2 cells; B to A): 88.7% and 78.3%
CLint, CYP2E1 (CYP2E1; 1 μM, experimental data): 0.03 µL/min/pmol and 0.030 µL/min/pmol
half-life at 1 μM (CYP2E1; human, recombinant CYP2E1, rCYP2E1): 693 min
Slope (disappearance) (CYP2E1; rCYP2E1, 1 μM): -0.001
SMILES: Cc1nc2cc(C(=O)N(C)C)cc(O[C@H]3CCOc4cc(F)cc(F)c43)c2[nH]1 [tegoprazan]
observed Cmax, Day 7 ([1]; 100 mg once daily for 7 days): 845.2 ± 40.7 ng/mL
observed Cmax, Day 1 ([1]; 100 mg once daily): 1413.3 ± 24.7 ng/mL
Transport Rate (Caco-2 cells; B to A): 0.49 nmol/h and 0.46 nmol/h and 0.53 nmol/h
Tmax ([3]; At 30 min after a high-fat meal, Observed (n = 12), single 50 mg, median (min–max), ref 34 (footnote; text: ref 16)): 3.0 (0.5–8.0) h
AUC0–24 h [3, 4]: 3017 ± 1194 ng·h/mL
Cmax [3, 4]: 492.0 ± 293.9 ng/mL
AUC0–24 h ([3]; Fast, Observed (n = 12), single 50 mg, mean ± SD, ref 34 (footnote; text: ref 16)): 2837 ± 1055 ng·h/mL
Cmax ([3]; Fast, Observed (n = 12), single 50 mg, ref 34 (footnote; text: ref 16)): 803.0 ± 156.2 ng/mL
Cmax ([3]; administered at 30 min after high-fat meal, observed): 492 ng/mL
median Tmax ([3]; at 30 min before a high-fat meal, observed): 28.8 min
Cmax ([3]; fasting state, observed): 803 ng/mL
Cmax at 30 min after a high-fat meal compared with fasting state (decreased to) ([3]; observed): 38.7%
